This note sets out measurements from patent US9067897B2, “2,4-Diaminoquinazolines for spinal muscular atrophy” (Families of Spinal Muscular Atrophy, priority 2004, dated 2015).

SMILES strings stand for the structures. pEC50: −log10 of the molar value. Where a name gives a salt, the structure may show the parent alone.

The subject of the first test is SMN2 promoter. The test is described as follows: SMN2 promoter assay (β-lactamase reporter) in NSC-34 cells. The conditions noted are these: Mus musculus, SMN2 promoter driving β-lactamase, 12 point dose curve, average of 3-6 dose curve experiments. The test is classed as cell-based, mouse. The text has this: All compounds were screened using an in vitro based SMN2 promoter assay. We used NSC-34 cells, a hybrid cell line between mouse spinal cord cells and mouse neuroblastoma cells. NSC-34 cells harbor an expression plasmid containing a 3.4 kb promoter fragment of the SMN2 gene driving β-lactamase expression.
[…] […] CCF2-AM diffuses across the plasma membrane and is converted into an active β-lactamase substrate by cytoplasmic esterase. […] The fold induction is proportional to the extent of β-lactamase produced and in turn proportional to SMN2 promoter activation for a given compound relative to vehicle (DMSO) control. […] These values are used to rank activities of the compounds and derive structure activity relationship.
As usually defined, the pEC50 is −log10 of the EC50, conventionally taken in molar units. High values mean a low EC50, low ones a high EC50. In the case of `Cc1cc(COc2cccc3nc(N)nc(N)c23)no1` [Example 53, 5-(5-Methylisoxazol-3-ylmethoxy)quinazoline-2,4-diamine], the pEC50 was > 6.00.
In the case of `Nc1nc(N)c2c(OCc3ccc4c(c3)OCO4)cccc2n1` [Example 54, 5-(Benzo[1,3]dioxol-5-ylmethoxy)quinazoline-2,4-diamine], the pEC50 was > 6.00.
Still for that read-out and setting: the result for `Nc1nc(N)c2c(OCC3CCCCO3)cccc2n1` (centres unmarked) [Example 55, 5-(Tetrahydropyran-2-ylmethoxy)quinazoline-2,4-diamine] reads > 6.00.
On the same count and under the same terms, the result for `C[C@@H](Oc1cccc2nc(N)nc(N)c12)c1ccccc1` [Example 56, 5-((R)-1-Phenylethoxy)quinazoline-2,4-diamine] reads > 6.00.
The same measure, in the same setting: the result for `CC(Oc1cccc2nc(N)nc(N)c12)c1ccccn1` (centres unmarked) [Example 57, 5-(1-Pyridin-2-ylethoxy)quinazoline-2,4-diamine] reads > 6.00.
On to `CC(Oc1cccc2nc(N)nc(N)c12)c1nccs1` (centres unmarked) [Example 58, 5-(1-Thiazol-2-ylethoxy)quinazoline-2,4-diamine], for which the pEC50 was > 6.00.
With `Nc1nc(N)c2c(N3CCCCC3)cccc2n1` [Example 59, 5-(Piperidin-1-yl)quinazoline-2,4-diamine], the pEC50 is > 6.00.
Regarding `Cc1cccc(S(=O)(=O)c2cccc3nc(N)nc(N)c23)c1` [Example 60, 5-(Toluene-3-sulfonyl)-quinazoline-2,4-diamine], the pEC50 is 5.30 to 6.00.
Same read-out and setting: the result for `Nc1nc(N)c2c(OC3CCc4ccc(Cl)cc43)cccc2n1` (centres unmarked) [Example 61, 5-(6-Chloro-indan-1-yloxy)-quinazoline-2,4-diamine] reads > 6.00; that for `Nc1nc(N)c2c(OCc3ccc(Br)cc3)cccc2n1` [Example 62, 5-(4-Bromobenzyloxy)-quinazoline-2,4-diamine], > 6.00.
The same measure, in the same setting: then `CC(Oc1cccc2nc(N)nc(N)c12)c1cccc(I)c1` (centres unmarked) [Example 63, 5-[1-(3-Iodophenyl)-ethoxy]-quinazoline-2,4-diamine], with > 6.00; and `CC(Oc1cccc2nc(N)nc(N)c12)c1ccc2c(c1)OCO2` (centres unmarked) [Example 64, 5-(1-Benzo[1,3]-dioxol-5-yl-ethoxy)-quinazoline-2,4-diamine], with > 6.00.
The same measure, in the same setting: then `COc1ccc(COc2cccc3nc(N)nc(N)c23)cc1OC` [Example 65, 5-(3,4-Dimethoxybenzyloxy)-quinazoline-2,4-diamine], with > 6.00; and `COc1cccc(C(C)Oc2cccc3nc(N)nc(N)c23)c1` (centres unmarked) [Example 66, 5-[1-(3-Methoxyphenyl)-ethoxy]-quinazoline-2,4-diamine], with > 6.00; and `COc1cc(OC)cc(C(C)Oc2cccc3nc(N)nc(N)c23)c1` (centres unmarked) [Example 67, 5-[1-(3,5-Dimethoxyphenyl)-ethoxy]-quinazoline-2,4-diamine], with > 6.00.
`COCOCC(COc1cccc2nc(N)nc(N)c12)c1ccc(Cl)cc1` (centres unmarked) [Example 68, 5-[2-(4-Chlorophenyl)-3-methoxymethoxypropoxy]-quinazoline-2,4-diamine]: the pEC50 was > 6.00.
On the same count and under the same terms, then `Nc1nc(N)c2c(OCC(CO)c3ccc(Cl)cc3)cccc2n1` (centres unmarked) [Example 69, 2-(4-Chlorophenyl)-3-(2,4-diaminoquinazolin-5-yloxy)-propan-1-ol hydrochloride], with > 6.00; and `Nc1nc(N)c2c(OCc3cc(Cl)c(Cl)cc3CO)cccc2n1` [Example 70, [4,5-Dichloro-2-(2,4-diaminoquinazolin-5-yloxymethyl)phenyl]methanol hydrochloride], with > 6.00; and `COc1cc(Cl)ccc1Oc1cccc2nc(N)nc(N)c12` [Example 71, 5-(4-Chloro-2-methoxyphenoxy)-quinazoline-2,4-diamine], with > 6.00.
As to `Nc1nc(N)c2c(OCC34CC5CC(CC(C5)C3)C4)cccc2n1` [Example 73, 5-(Adamantan-1-ylmethoxy)-quinazoline-2,4-diamine], the pEC50 was > 6.00.
Same read-out and setting: the result for `Nc1nc(N)c2c(OCc3ccccc3Br)cccc2n1` [Example 74, 5-(2-Bromo-benzyloxy)-quinazoline-2,4-diamine] reads > 6.00; that for `Nc1nc(N)c2c(OCc3ccccc3I)cccc2n1` [Example 75, 5-(2-Iodo-benzyloxy)-quinazoline-2,4-diamine], > 6.00.
The same measure, in the same setting: the result for `Nc1nc(N)c2c(OCc3cccc(Br)c3)cccc2n1` [Example 76, 5-(3-Bromobenzyloxy)quinazoline-2,4-diamine] reads > 6.00; that for `Nc1nc(N)c2c(OCc3cccc(I)c3)cccc2n1` [Example 77, 5-(3-Iodo-benzyloxy)-quinazoline-2,4-diamine], > 6.00; that for `CC(Oc1cccc2nc(N)nc(N)c12)c1ccc(Cl)c(Cl)c1` (centres unmarked) [Example 78, 5-[1-(3,4-Dichlorophenyl)-ethoxy]-quinazoline-2,4-diamine], > 6.00.
Regarding `Nc1nc(N)c2c(OCc3cc(F)cc(F)c3)cccc2n1` [Example 79, 5-(3,5-Difluorobenzyloxy)quinazoline-2,4-diamine], the pEC50 was > 6.00.
Turning to `Nc1nc(N)c2c(OC3CCc4c(F)cccc43)cccc2n1` (centres unmarked) [Example 80, 5-(4-Fluoroindan-1-yloxy)-quinazoline-2,4-diamine], the pEC50 is > 6.00.
As for `Nc1nc(N)c2c(OC3CCc4ccc(F)cc43)cccc2n1` (centres unmarked) [Example 81, 5-(6-Fluoroindan-1-yloxy)-quinazoline-2,4-diamine], the pEC50 is > 6.00.
Take `CC(Oc1cccc2nc(N)nc(N)c12)c1c(F)cccc1F` (centres unmarked) [Example 82, 5-[1-(2,6-Difluorophenyl)-ethoxy]-quinazoline-2,4-diamine]: the pEC50 is > 6.00.
`Nc1nc(N)c2c(OCc3cc(F)cc(F)c3F)cccc2n1` [Example 83, 5-(2,3,5-Trifluorobenzyloxy)-quinazoline-2,4-diamine]: the pEC50 is > 6.00.
For the compound `Nc1nc(N)c2c(OCc3cc(F)ccc3F)cccc2n1` [Example 84, 5-(2,5-Difluorobenzyloxy)-quinazoline-2,4-diamine], the pEC50 was > 6.00.
Take `Nc1nc(N)c2c(OCc3ccc(F)cc3F)cccc2n1` [Example 85, 5-(2,4-Difluorobenzyloxy)-quinazoline-2,4-diamine]: the pEC50 was > 6.00.
On the same count and under the same terms, the result for `Nc1nc(N)c2c(OCc3c(F)cccc3F)cccc2n1` [Example 86, 5-(2,6-Difluorobenzyloxy)-quinazoline-2,4-diamine] reads > 6.00; that for `Nc1nc(N)c2c(OCc3ccc(F)c(F)c3)cccc2n1` [Example 87, 5-(3,4-Difluorobenzyloxy)quinazoline-2,4-diamine], > 6.00.
On the same count and under the same terms, the result for `COc1ccc(Cl)cc1COc1cccc2nc(N)nc(N)c12` [Example 88, 5-(5-Chloro-2-methoxybenzyloxy)quinazoline-2,4-diamine] reads > 6.00; that for `Nc1nc(N)c2c(OCc3cc(Cl)ccc3CO)cccc2n1` [Example 89, [4-Chloro-2-(2,4-diamino-quinazolin-5-yloxymethyl)-phenyl]-methanol hydrochloride], > 6.00; that for `Nc1nc(N)c2c(-c3ccsc3)cccc2n1` [Example 90, 5-Thiophen-3-yl-quinazoline-2,4-diamine], 5.30 to 6.00.
Take `Nc1nc(N)c2c(-c3cccc(Cl)c3)cccc2n1` [Example 91, 5-(3-Chlorophenyl)-quinazoline-2,4-diamine]: the pEC50 is > 6.00.
`C[C@@H](Oc1cccc2nc(N)nc(N)c12)c1cccc(Cl)c1` [Example 92, 5-[(R)-1-(3-Chlorophenyl)ethoxyl]quinazolin-2,4-diamine]: the pEC50 was > 6.00.
Regarding `CC(Oc1cccc2nc(N)nc(N)c12)c1cccc(F)c1` (centres unmarked) [Example 93, 5-[1-(3-Fluorophenyl)-ethoxy]-quinazoline-2,4-diamine], the pEC50 was > 6.00.
`CC(Oc1cccc2nc(N)nc(N)c12)c1ccccc1C(F)(F)F` (centres unmarked) [Example 94, 5-[1-(2-Trifluoromethylphenyl)-ethoxy]-quinazoline-2,4-diamine] gave a negative logarithm of the EC50 (pEC50) of 4.70 to 5.00.
Still for that read-out and setting: then `CC(Oc1cccc2nc(N)nc(N)c12)c1cccc(C(F)(F)F)c1` (centres unmarked) [Example 95, 5-[1-(3-Trifluoromethylphenyl)-ethoxy]-quinazoline-2,4-diamine], with > 6.00; and `Nc1nc(N)c2c(OCc3ccccc3F)cccc2n1` [Example 96, 5-(2-Fluorobenzyloxy)-quinazoline-2,4-diamine], with > 6.00.
With `Nc1nc(N)c2c(OCc3ccc(F)cc3)cccc2n1` [Example 97, 5-(4-Fluorobenzyloxy)-quinazoline-2,4-diamine], the pEC50 was > 6.00.
As to `Nc1nc(N)c2c(OCc3cccc(C(F)(F)F)c3)cccc2n1` [Example 98, 5-(3-Trifluoromethylbenzyloxy)-quinazoline-2,4-diamine], the pEC50 is > 6.00.
Turning to `Nc1nc(N)c2c(OCc3ccccc3C(F)(F)F)cccc2n1` [Example 99, 5-(2-Trifluoromethylbenzyloxy)-quinazoline-2,4-diamine], the pEC50 was > 6.00.
The same measure, in the same setting: then `Nc1nc(N)c2c(OCc3ccc(C(F)(F)F)cc3)cccc2n1` [Example 100, 5-(4-Trifluoromethylbenzyloxy)-quinazoline-2,4-diamine], with > 6.00; and `CC(Oc1cccc2nc(N)nc(N)c12)c1ccccc1F` (centres unmarked) [Example 103, 5-[1-(2-Fluorophenyl)-ethoxy]-quinazoline-2,4-diamine], with > 6.00.
On the same count and under the same terms, the result for `CC(Oc1cccc2nc(N)nc(N)c12)c1ccccc1Cl` (centres unmarked) [Example 104, 5-[1-(2-Chlorophenyl)ethoxy]-quinazoline-2,4-diamine] reads > 6.00.

The same test, now with this note: SMN2 promoter driving β-lactamase, 12 point dose curve, average of 3-6 dose curve experiments.
`COc1cccc2c1OCC2Oc1cccc2nc(N)nc(N)c12` (centres unmarked) [Example 72, 5-(7-Methoxy-2,3-dihydrobenzofuran-3-yoloxy)-quinazoline-2.4-diamine]: the pEC50 is 5.30 to 6.00.
